Measured values from BindingDB's records for doi:10.1016/j.chembiol.2011.05.008 (Stanford University, 2011).
*1 amine or outer side, *2 acyl side, *3 side chain or, on linkers, in order; H or OH if unused. Where a SMILES comes first, the peptide text is derived from it. [ ]: non-standard residue; d: D form. The star is where a group is joined. ξ: configuration not given here. ξThr(3S) = C[C@H](O[*:3])C(N[*:1])C(=O)[*:2]; X2 = O=C(CN*)COC(=O)c1c2ccccc2cc2ccccc12; X1 = O=C(Cc1ccc(O)c([N+](=O)[O-])c1)*

Columns and labels:
Test in all cases: Fluorogenic Assay
Conditions in all cases: pH 8; 37 °C
[1] = molecular target: T1, Sentrin-specific protease 1 (Homo sapiens, UniProt Q9P0U3)
T1 sequence (Q9P0U3 whole entry): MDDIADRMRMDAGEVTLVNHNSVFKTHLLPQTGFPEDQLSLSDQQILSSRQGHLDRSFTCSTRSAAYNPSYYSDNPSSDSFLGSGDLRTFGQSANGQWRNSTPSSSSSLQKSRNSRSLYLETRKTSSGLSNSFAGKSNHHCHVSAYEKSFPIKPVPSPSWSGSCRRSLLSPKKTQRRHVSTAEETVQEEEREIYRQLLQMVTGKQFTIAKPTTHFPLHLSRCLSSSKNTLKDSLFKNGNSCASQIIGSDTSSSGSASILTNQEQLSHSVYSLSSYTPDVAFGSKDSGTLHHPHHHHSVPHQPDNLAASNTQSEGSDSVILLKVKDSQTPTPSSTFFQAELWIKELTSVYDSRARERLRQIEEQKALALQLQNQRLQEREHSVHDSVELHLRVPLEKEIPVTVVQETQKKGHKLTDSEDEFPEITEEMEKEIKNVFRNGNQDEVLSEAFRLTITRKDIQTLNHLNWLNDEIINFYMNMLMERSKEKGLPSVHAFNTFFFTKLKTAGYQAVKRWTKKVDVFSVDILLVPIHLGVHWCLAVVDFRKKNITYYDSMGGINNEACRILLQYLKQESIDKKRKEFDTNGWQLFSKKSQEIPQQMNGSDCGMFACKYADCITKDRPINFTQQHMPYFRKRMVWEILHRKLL
Method: The fluorogenic substrate library screen was performed with hSENP1 in low salt tris buffer at final concentration of 2uM. Fluorophore release (AFC) production was measured using fluorescence plate reader at 405nm/510nm for 10-60min.

[2] = molecular target: T2, Sentrin-specific protease 2 (Homo sapiens, UniProt Q9HC62)
T2 sequence (Q9HC62 whole entry): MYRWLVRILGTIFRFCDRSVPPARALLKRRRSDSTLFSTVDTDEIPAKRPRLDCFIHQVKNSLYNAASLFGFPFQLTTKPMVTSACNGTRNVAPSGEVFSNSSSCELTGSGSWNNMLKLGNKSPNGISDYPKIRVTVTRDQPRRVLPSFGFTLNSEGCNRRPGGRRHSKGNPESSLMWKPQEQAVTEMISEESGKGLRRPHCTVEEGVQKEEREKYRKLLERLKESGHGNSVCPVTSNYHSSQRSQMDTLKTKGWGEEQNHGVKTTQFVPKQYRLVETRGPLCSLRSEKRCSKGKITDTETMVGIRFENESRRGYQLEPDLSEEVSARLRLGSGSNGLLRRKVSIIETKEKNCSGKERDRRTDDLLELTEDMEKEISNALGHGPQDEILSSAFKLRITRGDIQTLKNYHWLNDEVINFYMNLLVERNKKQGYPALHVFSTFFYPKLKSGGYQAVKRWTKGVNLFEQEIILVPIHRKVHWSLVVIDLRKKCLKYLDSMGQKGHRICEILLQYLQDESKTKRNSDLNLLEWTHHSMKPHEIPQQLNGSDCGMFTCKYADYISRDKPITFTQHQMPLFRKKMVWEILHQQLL

[3] = molecular target: T3, Sentrin-specific protease 7 (Homo sapiens, UniProt Q9BQF6)
T3 sequence (Q9BQF6 whole entry): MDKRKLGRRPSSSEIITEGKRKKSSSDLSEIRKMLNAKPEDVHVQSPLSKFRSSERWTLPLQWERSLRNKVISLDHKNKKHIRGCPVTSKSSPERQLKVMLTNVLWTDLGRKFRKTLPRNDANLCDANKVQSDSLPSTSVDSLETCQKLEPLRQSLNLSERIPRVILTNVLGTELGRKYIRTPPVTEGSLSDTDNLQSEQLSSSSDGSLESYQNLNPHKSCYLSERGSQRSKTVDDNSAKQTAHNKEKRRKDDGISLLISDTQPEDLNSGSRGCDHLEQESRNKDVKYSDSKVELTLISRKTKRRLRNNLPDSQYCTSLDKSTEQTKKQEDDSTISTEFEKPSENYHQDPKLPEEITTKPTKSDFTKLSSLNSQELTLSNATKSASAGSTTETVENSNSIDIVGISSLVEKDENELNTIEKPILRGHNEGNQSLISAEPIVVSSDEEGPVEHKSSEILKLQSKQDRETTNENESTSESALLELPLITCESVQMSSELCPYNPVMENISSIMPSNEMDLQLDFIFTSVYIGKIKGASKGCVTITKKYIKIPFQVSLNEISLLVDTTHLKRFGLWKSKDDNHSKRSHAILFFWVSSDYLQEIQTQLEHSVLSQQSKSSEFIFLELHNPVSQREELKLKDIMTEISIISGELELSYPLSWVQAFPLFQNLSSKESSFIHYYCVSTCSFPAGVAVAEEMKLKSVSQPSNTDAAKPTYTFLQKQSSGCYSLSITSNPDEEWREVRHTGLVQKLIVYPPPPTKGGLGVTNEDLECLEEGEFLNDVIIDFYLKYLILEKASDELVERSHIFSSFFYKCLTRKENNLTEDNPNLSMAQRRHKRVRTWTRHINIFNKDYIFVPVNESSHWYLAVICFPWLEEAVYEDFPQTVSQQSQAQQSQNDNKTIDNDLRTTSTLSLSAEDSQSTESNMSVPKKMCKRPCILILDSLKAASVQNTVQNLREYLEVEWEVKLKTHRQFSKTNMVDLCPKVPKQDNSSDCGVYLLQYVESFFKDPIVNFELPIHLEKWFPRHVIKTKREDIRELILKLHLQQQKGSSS

[4] = molecular target: T4, Sentrin-specific protease 6 (Homo sapiens, UniProt Q9GZR1)
T4 sequence (Q9GZR1 whole entry): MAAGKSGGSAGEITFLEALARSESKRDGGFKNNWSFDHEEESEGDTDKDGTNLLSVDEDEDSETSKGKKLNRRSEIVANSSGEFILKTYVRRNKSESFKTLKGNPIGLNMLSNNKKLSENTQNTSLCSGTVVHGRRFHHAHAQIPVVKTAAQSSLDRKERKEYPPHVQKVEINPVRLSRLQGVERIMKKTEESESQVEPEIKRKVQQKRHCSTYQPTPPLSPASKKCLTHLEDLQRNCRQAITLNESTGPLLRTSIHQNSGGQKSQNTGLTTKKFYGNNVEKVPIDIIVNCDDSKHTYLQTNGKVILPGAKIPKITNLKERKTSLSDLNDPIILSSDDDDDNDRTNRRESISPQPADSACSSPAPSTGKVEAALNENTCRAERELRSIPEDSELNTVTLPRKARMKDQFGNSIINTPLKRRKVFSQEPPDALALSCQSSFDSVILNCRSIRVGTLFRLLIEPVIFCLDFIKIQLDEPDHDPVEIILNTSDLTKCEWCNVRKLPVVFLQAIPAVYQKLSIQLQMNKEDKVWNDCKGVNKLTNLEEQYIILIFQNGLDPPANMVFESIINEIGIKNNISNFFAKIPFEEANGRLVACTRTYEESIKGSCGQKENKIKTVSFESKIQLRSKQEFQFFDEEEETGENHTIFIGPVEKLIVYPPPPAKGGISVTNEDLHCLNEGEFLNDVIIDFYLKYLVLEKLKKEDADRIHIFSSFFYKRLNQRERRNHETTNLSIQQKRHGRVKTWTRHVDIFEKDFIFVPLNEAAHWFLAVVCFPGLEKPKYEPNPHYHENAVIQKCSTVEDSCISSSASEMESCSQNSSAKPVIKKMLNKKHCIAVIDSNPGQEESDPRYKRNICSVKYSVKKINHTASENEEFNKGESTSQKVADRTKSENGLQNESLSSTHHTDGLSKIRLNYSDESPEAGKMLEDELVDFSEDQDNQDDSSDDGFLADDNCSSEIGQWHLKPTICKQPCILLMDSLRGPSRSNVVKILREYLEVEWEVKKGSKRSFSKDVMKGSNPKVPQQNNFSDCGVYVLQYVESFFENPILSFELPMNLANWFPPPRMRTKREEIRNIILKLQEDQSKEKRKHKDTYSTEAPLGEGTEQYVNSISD

| SMILES | IC50 [1] [µM] | IC50 [2] [µM] | IC50 [3] [µM] | IC50 [4] [µM] |
| --- | --- | --- | --- | --- |
| CC(C)C[C@H](NC(=O)Cc1ccc(O)c([N+](=O)[O-])c1)C(=O)N[C@@H](CCCNC(=N)N)C(=O)NCC(=O)NCC(=O)COC(=O)c1c2ccccc2cc2ccccc12 [VEA-561] | > 25 | 5.7 | 4.3 | 4.2 |
| C[C@H](O)C(NC(=O)[C@H](CCC(N)=O)NC(=O)[C@H](CCC(N)=O)NC(=O)Cc1ccc(O)c([N+](=O)[O-])c1)C(=O)NCC(=O)NCC(=O)COC(=O)c1c2ccccc2cc2ccccc12 (stereo partly drawn) [VEA-500] (X1-QQ[ξThr(3S)]G-X2) | > 20 | 0.86 | > 100 | > 40 |
| C[C@H](O)C(NC(=O)[C@H](CCC(N)=O)NC(=O)Cc1ccc(O)c([N+](=O)[O-])c1)C(=O)NCC(=O)NCC(=O)COC(=O)c1c2ccccc2cc2ccccc12 (some centres not stated) [VEA-499] | 3.6 | 0.25 | > 100 | > 60 |
| O=C(O)CN(NC(=O)c1ccc(CNC(=O)c2cccc(C(=O)O)c2)cc1)C(=O)[C@H]1O[C@@H]1C(=O)N(Cc1cccc2ccccc12)Cc1cccc2ccccc12 [JCP-666] | 13.8 | 7 | > 70 | > 100 |
| NC(=O)[C@H](CC(=O)O)NC(=O)c1ccc(C(=O)NNC(=O)[C@H]2O[C@@H]2C(=O)N(Cc2cccc3ccccc23)Cc2cccc3ccccc23)cc1 [VEA-422] | 22.4 | 10.4 | > 70 | > 100 |
| O=C(CNC(=O)c1ccc(CNC(=O)c2cccc(C(=O)O)c2)cc1)COC(=O)c1c2ccccc2cc2ccccc12 [VEA-401] | 23.1 | 13.4 | > 20 | > 40 |
| NC(=O)CNC(=O)c1ccc(C(=O)NNC(=O)[C@H]2O[C@@H]2C(=O)N(Cc2cccc3ccccc23)Cc2cccc3ccccc23)cc1 [VEA-417] | 32.5 | 13.1 | > 70 | > 100 |
| O=C(O)c1cccc(C(=O)NCc2ccc(C(=O)NNC(=O)[C@H]3O[C@@H]3C(=O)N(Cc3cccc4ccccc34)Cc3cccc4ccccc34)cc2)c1 [VEA-260] | 7.1 | 3.7 | 36.5 | > 100 |
